Laboratory results as given in US20250051319A1 (AUGUSTINE THERAPEUTICS, priority 2021, published 2025).

Key:
[1] = molecular target: catalytic domain 2 (CD2) of HDAC6 (Homo sapiens (Human), UniProt Q9UBN7); assay: Cellular target engagement assay - NanoBRET; assay type: cell-based; settings: NanoLuc-HDAC6(CD2) in HEK293T cells, 2 hours, read-out: IC50 (HDAC6(CD2) interaction)
[2] = molecular target: human full-length recombinant HDAC6 (Homo sapiens (Human), UniProt Q9UBN7); assay: HDAC6 enzymatic activity assay (Reaction Biology Corporation, RHKKAc fluorogenic peptide); assay type: biochemical; settings: Reaction Biology Corporation protocol, RHKKAc fluorogenic peptide 10 μM; read-out: HDAC6 biochem
human full-length recombinant HDAC6, sequence (Q9UBN7 whole entry): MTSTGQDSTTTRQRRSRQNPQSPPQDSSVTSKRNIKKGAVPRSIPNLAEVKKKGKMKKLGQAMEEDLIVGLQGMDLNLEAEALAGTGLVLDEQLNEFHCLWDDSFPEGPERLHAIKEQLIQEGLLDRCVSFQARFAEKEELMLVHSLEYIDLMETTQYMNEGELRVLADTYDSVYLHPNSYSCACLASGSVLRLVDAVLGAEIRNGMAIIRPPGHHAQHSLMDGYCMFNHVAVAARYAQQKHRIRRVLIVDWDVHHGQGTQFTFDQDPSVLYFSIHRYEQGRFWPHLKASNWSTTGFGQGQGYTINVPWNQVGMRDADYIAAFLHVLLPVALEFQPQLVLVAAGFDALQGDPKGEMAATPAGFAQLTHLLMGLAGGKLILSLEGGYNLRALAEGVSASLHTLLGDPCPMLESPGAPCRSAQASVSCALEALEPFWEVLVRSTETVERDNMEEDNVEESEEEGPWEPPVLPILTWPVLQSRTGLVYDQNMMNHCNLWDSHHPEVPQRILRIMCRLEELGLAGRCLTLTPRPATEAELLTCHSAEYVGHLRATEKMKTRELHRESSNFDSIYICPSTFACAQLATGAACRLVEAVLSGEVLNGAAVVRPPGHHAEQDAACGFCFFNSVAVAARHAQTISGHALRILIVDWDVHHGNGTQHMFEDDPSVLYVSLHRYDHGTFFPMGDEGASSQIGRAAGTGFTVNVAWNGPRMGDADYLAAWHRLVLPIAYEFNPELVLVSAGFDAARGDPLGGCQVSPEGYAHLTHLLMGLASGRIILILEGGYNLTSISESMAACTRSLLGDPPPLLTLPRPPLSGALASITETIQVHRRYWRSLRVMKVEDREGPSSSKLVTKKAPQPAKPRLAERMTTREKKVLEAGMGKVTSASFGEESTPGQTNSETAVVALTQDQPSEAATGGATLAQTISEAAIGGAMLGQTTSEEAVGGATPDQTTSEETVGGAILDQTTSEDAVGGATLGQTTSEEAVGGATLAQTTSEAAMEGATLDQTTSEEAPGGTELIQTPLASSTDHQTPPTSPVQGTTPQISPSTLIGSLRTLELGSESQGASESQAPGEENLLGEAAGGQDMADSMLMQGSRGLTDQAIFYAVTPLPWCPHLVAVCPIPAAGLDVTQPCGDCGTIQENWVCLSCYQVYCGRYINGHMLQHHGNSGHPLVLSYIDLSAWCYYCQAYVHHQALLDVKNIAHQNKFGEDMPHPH
Description: (§1) Dose response testing of HDAC6 and HDAC 1 were run at Reaction Biology Corporation (RBC). Inhibition of HDAC enzymes was performed using N-terminal GST tagged human full-length recombinant HDAC6 (H88-30G, SignalChem) and C-terminal FLAG His tag human full-length recombinant HDAC1 produced in insect cells (KDA-21-365, RBC). Enzyme reactions were run in 50 mM Tris-HCl, pH8.0, 137 mM NaCl, 2.7 mM KCl, and 1 mM MgCl2 with 1 mg/ml BSA, 1% DMSO freshly added. 2× enzyme was delivered in the wells of the reaction plate except for the “no enzyme” control wells. In the latter, buffer was added. Compounds in 100% DMSO were delved into the enzyme mixture by acoustic technology (Echo550). Plates are spun down and compounds were incubation with the enzyme for 10 min at room temperature. 2× Fluorogenic peptide from p53 residues 379-382 (RHKKAc, 10 μM final concentration) was added in all wells to initiate the reaction, followed by 1 h incubation at 30° C. Developer containing Trichostatin A was added to stop the reaction and generate fluorescent color. A kinetic measurement was carried out for 20 min with 5 min interval on the Envision plate reader (Perkin Elmer, Ex/Em=360/460). End point reading i.e., plateau of the development reaction was used for analysis. Data was reported by RBC as percentage enzyme activity. Percentage inhibition was calculated by subtracting percentage enzyme activity from 100. IC50 values were calculated using GraphPad Prism 9 based on the log(inhibitor) vs. response—Variable slope (four parameters) equation.

[3] = molecular target: human full-length recombinant HDAC1 (Homo sapiens (Human), UniProt Q13547); assay: HDAC1 enzymatic activity assay (Reaction Biology Corporation, RHKKAc fluorogenic peptide); assay type: biochemical; settings: Reaction Biology Corporation protocol, RHKKAc fluorogenic peptide 10 μM; read-out: HDAC1 biochem
human full-length recombinant HDAC1, sequence (Q13547 whole entry): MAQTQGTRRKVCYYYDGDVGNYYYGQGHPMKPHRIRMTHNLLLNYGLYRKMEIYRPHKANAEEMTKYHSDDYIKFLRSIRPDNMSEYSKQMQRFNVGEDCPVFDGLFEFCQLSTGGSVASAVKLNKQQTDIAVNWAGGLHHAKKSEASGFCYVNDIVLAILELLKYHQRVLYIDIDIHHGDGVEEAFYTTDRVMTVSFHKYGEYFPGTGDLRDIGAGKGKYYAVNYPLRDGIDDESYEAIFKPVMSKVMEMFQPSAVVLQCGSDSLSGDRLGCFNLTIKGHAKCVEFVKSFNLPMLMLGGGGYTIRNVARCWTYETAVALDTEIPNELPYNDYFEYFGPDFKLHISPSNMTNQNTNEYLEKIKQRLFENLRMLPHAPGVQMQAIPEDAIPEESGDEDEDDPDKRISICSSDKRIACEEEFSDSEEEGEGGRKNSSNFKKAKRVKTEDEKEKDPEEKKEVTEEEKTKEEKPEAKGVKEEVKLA
Description: as §1

catalytic domain 2 (CD2) of HDAC6, sequence (Q9UBN7 482-800): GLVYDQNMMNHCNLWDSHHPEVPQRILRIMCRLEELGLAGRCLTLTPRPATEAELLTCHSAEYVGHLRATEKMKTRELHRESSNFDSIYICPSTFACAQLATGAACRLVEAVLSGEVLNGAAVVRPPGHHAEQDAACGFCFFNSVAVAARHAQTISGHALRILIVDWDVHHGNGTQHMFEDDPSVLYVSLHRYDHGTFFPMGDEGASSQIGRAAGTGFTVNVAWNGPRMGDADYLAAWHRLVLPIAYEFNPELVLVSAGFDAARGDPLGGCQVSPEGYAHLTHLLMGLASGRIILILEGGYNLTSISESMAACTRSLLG

Structure (SMILES) | IC50 [1] | IC50 [2] | IC50 [3]
Cn1cc2c(SCC(=O)c3ccc(CNC(=O)CO)s3)nc(C(F)(F)F)nc2n1 [Compound 61, 2-hydroxy-N-((5-(2-((2-methyl-6-(trifluoromethyl)-2H-pyrazolo[3,4-d]pyrimidin-4-yl)thio)acetyl)thiophen-2-yl)methyl)acetamide] | ≤ 100 nM | ≤ 100 nM | > 10000 nM
Cc1nc(SCC(=O)c2ccc(CNC(=O)CO)s2)c2cccnc2n1 [Compound 64, 2-hydroxy-N-((5-(2-((2-methylpyrido[2,3-d]pyrimidin-4-yl)thio)acetyl)thiophen-2-yl)methyl)acetamide] | ≤ 100 nM | ≤ 100 nM | > 10000 nM
O=C(CO)NCc1ccc(C(=O)CSc2nc3cc(C(F)(F)F)ncc3o2)s1 [Compound 71, 2-hydroxy-N-((5-(2-((6-(trifluoromethyl)oxazolo[5,4-c]156yrrolid-2-yl)thio)acetyl)thiophen-2-yl)methyl)acetamide] | ≤ 100 nM | ≤ 100 nM | 1000 to 10000 nM
O=C(CO)NCc1ccc(C(=O)CSc2nc3nc(C(F)(F)F)ccc3o2)s1 [Compound 72, 2-hydroxy-N-((5-(2-((5-(trifluoromethyl)oxazolo[4,5-b]156yrrolid-2-yl)thio)acetyl)thiophen-2-yl)methyl)acetamide] | ≤ 100 nM | ≤ 100 nM | 500 to 1000 nM
Cc1nc(SCC(=O)c2ccc(CNC(=O)CO)s2)c2cc(Cl)c(F)cc2n1 [Compound 73, N-((5-(2-((6-chloro-7-fluoro-2-methylquinazolin-4-yl)thio)acetyl)thiophen-2-yl)methyl)-2-hydroxyacetamide] | ≤ 100 nM | ≤ 100 nM | > 10000 nM
Cn1ncc2c(SCC(=O)c3ccc(CNC(=O)CO)s3)nc(C(F)(F)F)nc21 [Compound 74, 2-hydroxy-N-((5-(2-((1-methyl-6-(trifluoromethyl)-1H-pyrazolo[3,4-d]pyrimidin-4-yl)thio)acetyl)thiophen-2-yl)methyl)acetamide] | ≤ 100 nM | ≤ 100 nM | > 10000 nM
COc1cc2c(SCC(=O)c3ccc(CNC(=O)CO)s3)nc(C)nc2cc1F [Compound 75, N-((5-(2-((7-fluoro-6-methoxy-2-methylquinazolin-4-yl)thio)acetyl)thiophen-2-yl)methyl)-2-hydroxyacetamide] |  |  | > 10000 nM
Cc1nc(SCC(=O)c2ccc(CNC(=O)CO)s2)c2cc(C(F)(F)F)ccc2n1 [Compound 76, 2-hydroxy-N-((5-(2-((2-methyl-6-(trifluoromethyl)quinazolin-4-yl)thio)acetyl)thiophen-2-yl)methyl)acetamide] | ≤ 100 nM | ≤ 100 nM | > 10000 nM
O=C(CO)NCc1ccc(C(=O)CSc2nc(C(F)(F)F)nc3nn(C4CC4)cc23)s1 [Compound 79, N-((5-(2-((2-cyclopropyl-6-(trifluoromethyl)-2H-pyrazolo[3,4-d]pyrimidin-4-yl)thio)acetyl)thiophen-2-yl)methyl)-2-hydroxyacetamide] | ≤ 100 nM | ≤ 100 nM | > 10000 nM
Cc1nc(SCC(=O)c2ccc(CNC(=O)CO)s2)c2cc(N3CCN(C)CC3)ccc2n1 [Compound 85, 2-hydroxy-N-((5-(2-((2-methyl-6-(4-methylpiperazin-1-yl)quinazolin-4-yl)thio)acetyl)thiophen-2-yl)methyl)acetamide] | ≤ 100 nM | ≤ 100 nM | > 10000 nM
O=C(CO)NCc1ccc(C(=O)CSc2nc(C(F)(F)F)nc3ncccc23)s1 [Compound 113, 2-hydroxy-N-((5-(2-((2-(trifluoromethyl)pyrido[2,3-d]pyrimidin-4-yl)thio)acetyl)thiophen-2-yl)methyl)acetamide] | ≤ 100 nM | ≤ 100 nM | > 10000 nM
O=C(CSc1nc(C(F)(F)F)nc2ncccc12)c1ccc(CNC(=O)C2CC2(F)F)s1 (stereo not shown) [Compound 114, 2,2-difluoro-N-((5-(2-((2-(trifluoromethyl)pyrido[2,3-d]pyrimidin-4-yl)thio)acetyl)thiophen-2-yl)methyl)cyclopropane-1-carboxamide] | ≤ 100 nM | ≤ 100 nM | > 10000 nM
O=C(CO)NCc1ccc(C(=O)CSc2nc3ccc(C(F)(F)F)nc3o2)s1 [Compound 117, 2-hydroxy-N-((5-(2-((5-(trifluoromethyl)oxazolo[5,4-b]157yrrolid-2-yl)thio)acetyl)thiophen-2-yl)methyl)acetamide] | ≤ 100 nM | ≤ 100 nM | > 10000 nM
O=C(CO)NCc1ccc(C(=O)CSc2nc3ncc(C(F)(F)F)cc3o2)s1 [Compound 118, 2-hydroxy-N-((5-(2-((6-(trifluoromethyl)oxazolo[4,5-b]157yrrolid-2-yl)thio)acetyl)thiophen-2-yl)methyl)acetamide] | ≤ 100 nM | ≤ 100 nM | 500 to 1000 nM
Cc1nc(SCC(=O)c2ccc(CNC(=O)CO)s2)c2cc(C(F)(F)F)cnc2n1 [Compound 119, 2-hydroxy-N-((5-(2-((2-methyl-6-(trifluoromethyl)pyrido[2,3-d]pyrimidin-4-yl)thio)acetyl)thiophen-2-yl)methyl)acetamide] | ≤ 100 nM | ≤ 100 nM | > 10000 nM
Cc1nc(SCC(=O)c2ccc(CNC(=O)CO)s2)c2cc(F)cnc2n1 [Compound 124, N-((5-(2-((6-fluoro-2-methylpyrido[2,3-d]pyrimidin-4-yl)thio)acetyl)thiophen-2-yl)methyl)-2-hydroxyacetamide] | ≤ 100 nM | ≤ 100 nM | > 10000 nM
COCCn1ncc2c(SCC(=O)c3ccc(CNC(=O)CO)s3)nc(C(F)(F)F)nc21 [Compound 125, 2-hydroxy-N-((5-(2-((1-(2-methoxyethyl)-6-(trifluoromethyl)-1H-pyrazolo[3,4-d]pyrimidin-4-yl)thio)acetyl)thiophen-2-yl)methyl)acetamide] | ≤ 100 nM | ≤ 100 nM | > 10000 nM
Cc1nc(SCC(=O)c2ccc(CNC(=O)CO)s2)c2cc(OC(F)(F)F)ccc2n1 [Compound 126, 2-hydroxy-N-((5-(2-((2-methyl-6-(trifluoromethoxy)quinazolin-4-yl)thio)acetyl)thiophen-2-yl)methyl)acetamide] | ≤ 100 nM | ≤ 100 nM | > 10000 nM
COCCn1cc2c(SCC(=O)c3ccc(CNC(=O)CO)s3)nc(C(F)(F)F)nc2n1 [Compound 132, 2-hydroxy-N-((5-(2-((2-(2-methoxyethyl)-6-(trifluoromethyl)-2H-pyrazolo[3,4-d]pyrimidin-4-yl)thio)acetyl)thiophen-2-yl)methyl)acetamide] | ≤ 100 nM | ≤ 100 nM | > 10000 nM
O=C(CO)NCc1ccc(C(=O)CSc2nc(C(F)(F)F)nc3c2cnn3C2CC2)s1 [Compound 133, N-((5-(2-((1-cyclopropyl-6-(trifluoromethyl)-1H-pyrazolo[3,4-d]pyrimidin-4-yl)thio)acetyl)thiophen-2-yl)methyl)-2-hydroxyacetamide] | ≤ 100 nM | ≤ 100 nM | > 10000 nM
CCn1cc2c(SCC(=O)c3ccc(CNC(=O)CO)s3)nc(C(F)(F)F)nc2n1 [Compound 135, N-((5-(2-((2-ethyl-6-(trifluoromethyl)-2H-pyrazolo[3,4-d]pyrimidin-4-yl)thio)acetyl)thiophen-2-yl)methyl)-2-hydroxyacetamide] | ≤ 100 nM | ≤ 100 nM | > 10000 nM
COc1cnc2nc(C)nc(SCC(=O)c3ccc(CNC(=O)CO)s3)c2c1 [Compound 140, 2-hydroxy-N-((5-(2-((6-methoxy-2-methylpyrido[2,3-d]pyrimidin-4-yl)thio)acetyl)thiophen-2-yl)methyl)acetamide] | ≤ 100 nM | ≤ 100 nM | > 10000 nM
Cc1nc(SCC(=O)c2ccc(CNC(=O)CO)s2)c2cc(Cl)cc(F)c2n1 [Compound 142, N-((5-(2-((6-chloro-8-fluoro-2-methylquinazolin-4-yl)thio)acetyl)thiophen-2-yl)methyl)-2-hydroxyacetamide] | ≤ 100 nM | ≤ 100 nM | > 10000 nM
COc1cc(C(F)(F)F)cc2c(SCC(=O)c3ccc(CNC(=O)CO)s3)nc(C)nc12 [Compound 148, 2-hydroxy-N-((5-(2-((8-methoxy-2-methyl-6-(trifluoromethyl)quinazolin-4-yl)thio)acetyl)thiophen-2-yl)methyl)acetamide] | ≤ 100 nM | ≤ 100 nM | > 10000 nM
O=C(CO)NCc1ccc(C(=O)CSc2nc(C(F)(F)F)nc3cccnc23)s1 [Compound 152, 2-hydroxy-N-((5-(2-((2-(trifluoromethyl)pyrido[3,2-d]pyrimidin-4-yl)thio)acetyl)thiophen-2-yl)methyl)acetamide] | ≤ 100 nM | ≤ 100 nM | > 10000 nM
